Measured values from BigSolDB 2.1.

Conditions: in chloroform

Brc1sc(Br)c(Br)c1Br
Conditions	solubility (mole fraction)
278.15 K	0.0198
282.15 K	0.0231
286.15 K	0.0265
290.15 K	0.0304
294.15 K	0.0349
298.15 K	0.0401
302.15 K	0.0458
306.15 K	0.0517
310.15 K	0.0588
314.15 K	0.066
318.15 K	0.0745
322.15 K	0.0828
